Data set [1] deals with T1, Histamine H4 receptor (Homo sapiens, UniProt Q9H3N8). Briefly: Antagonistic activity at human histamine H4 receptor in SK-N-MC cells by inhibition of forskolin-stimulated cAMP-mediated reporter gene activity. It is filed as functional, cell-based. Conditions: for Kb: read-out: pA2 (converted).
Data set [2] can be described thus: In vitro half life in human liver microsomes. It is filed as ADME, Microsome. (Liver microsomes are vesicles of endoplasmic reticulum, rich in cytochrome P450 enzymes.)
The nature of data set [3]: In vitro half life in rat S9 fraction. The format is ADME, Liver.
For data set [4], the system named is Rattus norvegicus. Briefly: Maximum concentration in rat administered with 10 mg/kg, po. The settings on record: in vivo. More on the design: dose 10 mg/kg, route oral. The format is ADME, organism-based.
A short description of data set [5]: Half life in rat administered with 2 mg/kg, iv. It is filed as ADME, organism-based. More on the design: dose 2 mg/kg, route intravenous. The settings on record: in vivo.
Data set [6] deals with T1, Histamine H4 receptor. Briefly: Displacement of [3H]histamine from recombinant human histamine H4 receptor in SK-N-MC cells. The format is cell-based. A general note: In a radioligand displacement assay an active substance lowers the binding of a labelled ligand.
Data set [7] can be described thus: In vitro half life in human S9 fraction. The format is ADME, Liver.
A short description of data set [8]: Oral bioavailability in rat administered with 10 mg/kg, po. The format is ADME, organism-based. Conditions: in vivo.
Data set [9] in a line: Half life in rat administered with 10 mg/kg, po. It is filed as ADME, organism-based. Conditions: in vivo. Details: dose 10 mg/kg, route oral.
Data set [10] is described as follows: In vitro half life in rat liver microsomes. The format is ADME, Microsome.
Data set [11] relates to Rattus norvegicus. Briefly: Area under curve in rat administered with 10 mg/kg, po. The format is ADME, organism-based. Details: dose 10 mg/kg, route oral. The settings on record: in vivo.
The target in the next data set is Histamine H3 receptor (Homo sapiens, UniProt Q9Y5N1). Briefly: Binding affinity to histamine H3 receptor.
Histamine H3 receptor, sequence (Q9Y5N1 whole entry): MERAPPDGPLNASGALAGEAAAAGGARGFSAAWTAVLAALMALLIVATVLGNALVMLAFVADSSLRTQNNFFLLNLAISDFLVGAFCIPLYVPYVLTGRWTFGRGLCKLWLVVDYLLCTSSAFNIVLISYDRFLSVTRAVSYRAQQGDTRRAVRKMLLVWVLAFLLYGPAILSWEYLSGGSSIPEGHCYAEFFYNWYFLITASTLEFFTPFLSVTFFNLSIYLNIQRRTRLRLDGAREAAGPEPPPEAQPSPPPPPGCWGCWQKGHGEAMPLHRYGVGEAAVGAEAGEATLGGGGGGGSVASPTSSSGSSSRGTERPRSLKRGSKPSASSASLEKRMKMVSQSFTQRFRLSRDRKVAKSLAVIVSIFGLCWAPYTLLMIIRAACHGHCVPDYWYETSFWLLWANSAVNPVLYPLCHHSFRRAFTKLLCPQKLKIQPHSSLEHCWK

T1 sequence (Q9H3N8 whole entry): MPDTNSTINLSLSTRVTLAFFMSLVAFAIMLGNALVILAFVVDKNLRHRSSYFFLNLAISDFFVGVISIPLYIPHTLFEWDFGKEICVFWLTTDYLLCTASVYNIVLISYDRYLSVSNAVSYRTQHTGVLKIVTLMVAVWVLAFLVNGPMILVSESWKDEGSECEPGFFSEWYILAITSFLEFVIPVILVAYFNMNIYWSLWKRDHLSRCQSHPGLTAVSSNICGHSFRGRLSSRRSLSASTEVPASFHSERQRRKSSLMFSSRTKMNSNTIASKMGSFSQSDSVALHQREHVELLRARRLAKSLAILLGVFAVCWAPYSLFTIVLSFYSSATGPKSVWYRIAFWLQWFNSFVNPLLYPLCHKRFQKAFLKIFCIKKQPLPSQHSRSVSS

As for `Cc1csc2cc(C(=O)N3CCN(C)CC3)[nH]c12`, the Kb on Histamine H4 receptor [1] is 0.0316 µM.
A word on the half-life: it is the time in which the quantity being followed falls by half. Lower therefore signals fast loss. The Cmax is the highest concentration seen after dosing. With `CN1CCN(C(=O)c2cc3cc(Cl)sc3[nH]2)CC1`, the half-life in data set [2] came to 0.883 h; in data set [3] it was 0.783 h; in [5], 6 min. In addition, at Histamine H4 receptor [1], the Kb is 0.0126 µM. The same compound registered a Cmax in the data set with Rattus norvegicus [4] of less than 0.1 µM.
Usually Ki stands for the equilibrium dissociation constant of an inhibitor or competing ligand from its target. Turning to `CN1CCN(C(=O)c2nc3cc(Cl)cc(Cl)c3[nH]2)CC1`, on Histamine H4 receptor [6], the Ki was found to be 0.136 µM.
With `CN1CCN(C(=O)c2cc3cccc(Cl)c3[nH]2)CC1`, the Kb at Histamine H4 receptor [1] was 0.0794 µM.
Take `CN1CCN(C(=O)c2cc3cc(F)cc(F)c3[nH]2)CC1`: the Kb on Histamine H4 receptor [1] was 0.02 µM.
On to `CN1CCN(C(=O)c2cc3cc(Cl)cc(Cl)c3[nH]2)CC1`, for which the Kb on Histamine H4 receptor [1] was 0.01 µM.
As for `CN1CCN(C(=O)c2cc3cc(O)ccc3[nH]2)CC1`, the Kb on Histamine H4 receptor [1] was 0.0794 µM.
As to `CN1CCN(C(=O)c2cc3ccsc3[nH]2)CC1`, the Ki at Histamine H4 receptor [6] was determined as 0.09 µM.
Regarding `Cc1ccc2[nH]c(C(=O)N3CCN(C)CC3)cc2c1`, the Kb at Histamine H4 receptor [1] is 0.02 µM.
For the compound `CN1CCN(C(=O)c2nc3ccccc3[nH]2)CC1`, at Histamine H4 receptor [1], the Kb is 0.0631 µM. Also, the Ki on Histamine H4 receptor [6] came to 0.035 µM.
On to `CN1CCN(C(=O)c2cc3cc(C(F)(F)F)ccc3[nH]2)CC1`, for which, on Histamine H4 receptor [6], the Ki came to 0.412 µM.
`Cc1c(F)ccc2[nH]c(C(=O)N3CCN(C)CC3)nc12`: the Kb on Histamine H4 receptor [1] is 0.0158 µM. Further, the Ki on Histamine H4 receptor [6] worked out at 0.007 µM.
On to `CN1CCN(C(=O)c2nc3c(F)c(F)ccc3[nH]2)CC1`, for which the Kb on Histamine H4 receptor [1] is 0.0794 µM. Moreover, the Ki at Histamine H4 receptor [6] is 0.049 µM.
In the case of `Cc1cccc2[nH]c(C(=O)N3CCN(C)CC3)nc12`, the Kb at Histamine H4 receptor [1] is 0.0251 µM. In addition, the inhibition constant (Ki) at Histamine H4 receptor [6] was 0.03 µM.
Turning to `Cc1cc(Cl)c2[nH]c(C(=O)N3CCN(C)CC3)cc2c1`, the Kb at Histamine H4 receptor [1] is 0.0501 µM. The Ki on Histamine H4 receptor [6] was determined as 0.033 µM.
Turning to `Cc1cc(C)c2[nH]c(C(=O)N3CCN(C)CC3)cc2c1`, the Kb at Histamine H4 receptor [1] is 0.0316 µM.
Regarding `CN1CCN(C(=O)c2cc3sccc3[nH]2)CC1`, on Histamine H4 receptor [6], the Ki came to 0.09 µM.
As for `CN1CCN(C(=O)c2nc3cc(F)ccc3[nH]2)CC1`, on Histamine H4 receptor [1], the Kb is 0.0501 µM. Further, the inhibitory constant (Ki) on Histamine H4 receptor [6] was determined as 0.019 µM.
On to `CN1CCN(C(=O)c2cc3cccc(Br)c3[nH]2)CC1`, for which the Kb on Histamine H4 receptor [1] is 0.126 µM.
For `CN1CCN(C(=O)c2cc3cc(Br)ccc3[nH]2)CC1`, the Kb at Histamine H4 receptor [1] is 0.0158 µM.
A word on the pA2: it is a measure of antagonist potency on a negative log scale. Low readings indicate lower antagonist potency, high ones higher antagonist potency. With `Cc1cccc2cc(C(=O)N3CCN(C)CC3)[nH]c12`, the pA2 on Histamine H4 receptor [1] is 7.9.
Regarding `Cc1c(Cl)sc2cc(C(=O)N3CCN(C)CC3)[nH]c12`, at Histamine H4 receptor [1], the Kb was 0.02 µM.
The bioavailability is the share of a dose that reaches the circulation, judged against a reference dose that is usually intravenous. Read a high bioavailability as good availability. With `CN1CCN(C(=O)c2cc3cc(Cl)ccc3[nH]2)CC1` [JNJ-7777120], the half-life in data set [2] is 0.467 h; in data set [7] it was 1.67 h; in data set [3], 1.07 h; in [9], 2.3 h; in data set [10], 0.075 h. The bioavailability in data set [8] stood at 22%. The Cmax with Rattus norvegicus [4] stood at 1.8 µM. Further, the AUC with Rattus norvegicus [11] came to 7 uM.h/L.
For `CN1CCN(C(=O)c2cc3sc(Cl)cc3[nH]2)CC1`, the Kb on Histamine H4 receptor [1] is 0.0501 µM.
As to `O=C(c1cc2ccccc2[nH]1)N1CCNCC1`, on Histamine H3 receptor, the Ki came to 9 µM.
`CN1CCN(C(=O)c2cc3c(Cl)c(Cl)ccc3[nH]2)CC1`: the Kb on Histamine H4 receptor [1] is 0.00631 µM.
On to `CN1CCN(C(=O)c2cc3cccc(N)c3[nH]2)CC1`, for which the Kb at Histamine H4 receptor [1] was 0.00794 µM.
On to `CN1CCN(C(=O)c2cc3c(Br)cccc3[nH]2)CC1`, for which, on Histamine H4 receptor [1], the Kb was 0.158 µM.
For the compound `CN1CCN(C(=O)c2nc3cc(C(F)(F)F)ccc3[nH]2)CC1`, the inhibition constant Ki at Histamine H4 receptor [6] amounted to 0.427 µM.
Turning to `Cc1c(F)ccc2[nH]c(C(=O)N3CCN(C)CC3)cc12`, the Kb at Histamine H4 receptor [1] is 0.02 µM. For the same compound, the Ki at Histamine H4 receptor [6] worked out at 0.027 µM.
Turning to `Cc1cc(Cl)c2nc(C(=O)N3CCN(C)CC3)[nH]c2c1`, on Histamine H4 receptor [1], the Kb is 0.126 µM. Also, the Ki on Histamine H4 receptor [6] is 0.023 µM.
Take `CN1CCN(C(=O)c2nc3cc(Cl)ccc3[nH]2)CC1`: the half-life is 1.67 h in data set [2]; 1.67 h in [7]; 1.47 h in [3]; 1 h in data set [9]; 0.2 h in data set [10]. Further, the Ki was 14.1 µM at Histamine H3 receptor and 0.026 µM on Histamine H4 receptor [6]. Moreover, on Histamine H4 receptor [1], the Kb was 0.02 µM. In [8], this compound gave a bioavailability of 27%. In the data set with Rattus norvegicus [4], the Cmax worked out at 1.8 µM. The same compound yielded an AUC in the data set on Rattus norvegicus [11] of 2.1 uM.h/L.
In the case of `CN1CCN(C(=O)c2nc3c(N)cccc3[nH]2)CC1`, on Histamine H4 receptor [6], the inhibition constant Ki is 0.244 µM.
Take `CN1CCN(C(=O)c2cc3cc(F)ccc3[nH]2)CC1`: at Histamine H4 receptor [1], the Kb was 0.02 µM.

Values taken from ChEMBL document CHEMBL1141189, “Preparation and biological evaluation of indole, benzimidazole, and thienopyrrole piperazine carboxamides: potent human histamine h(4) antagonists” (J Med Chem, 2005).
